Data from patent publication EP4806891A1 (Kangbaida (Sichuan) Biotechnology Co., Ltd., priority 2023, dated 2025).

molecular target: T1, HEK-Blue-hTLR7 cells (Homo sapiens, UniProt Q9NYK1); assay: HEK-Blue-hTLR7 cell inhibition assay; assay type: cell-based; conditions: R848 0.8 µM, 16 h, OD 620 nm, read-out: TLR7 IC50
T1 construct: expressed in transfected cells; host or cells: HEK-Blue-hTLR7 cells (HEK293-derived reporter line)
T1 sequence (Q9NYK1 27-1049): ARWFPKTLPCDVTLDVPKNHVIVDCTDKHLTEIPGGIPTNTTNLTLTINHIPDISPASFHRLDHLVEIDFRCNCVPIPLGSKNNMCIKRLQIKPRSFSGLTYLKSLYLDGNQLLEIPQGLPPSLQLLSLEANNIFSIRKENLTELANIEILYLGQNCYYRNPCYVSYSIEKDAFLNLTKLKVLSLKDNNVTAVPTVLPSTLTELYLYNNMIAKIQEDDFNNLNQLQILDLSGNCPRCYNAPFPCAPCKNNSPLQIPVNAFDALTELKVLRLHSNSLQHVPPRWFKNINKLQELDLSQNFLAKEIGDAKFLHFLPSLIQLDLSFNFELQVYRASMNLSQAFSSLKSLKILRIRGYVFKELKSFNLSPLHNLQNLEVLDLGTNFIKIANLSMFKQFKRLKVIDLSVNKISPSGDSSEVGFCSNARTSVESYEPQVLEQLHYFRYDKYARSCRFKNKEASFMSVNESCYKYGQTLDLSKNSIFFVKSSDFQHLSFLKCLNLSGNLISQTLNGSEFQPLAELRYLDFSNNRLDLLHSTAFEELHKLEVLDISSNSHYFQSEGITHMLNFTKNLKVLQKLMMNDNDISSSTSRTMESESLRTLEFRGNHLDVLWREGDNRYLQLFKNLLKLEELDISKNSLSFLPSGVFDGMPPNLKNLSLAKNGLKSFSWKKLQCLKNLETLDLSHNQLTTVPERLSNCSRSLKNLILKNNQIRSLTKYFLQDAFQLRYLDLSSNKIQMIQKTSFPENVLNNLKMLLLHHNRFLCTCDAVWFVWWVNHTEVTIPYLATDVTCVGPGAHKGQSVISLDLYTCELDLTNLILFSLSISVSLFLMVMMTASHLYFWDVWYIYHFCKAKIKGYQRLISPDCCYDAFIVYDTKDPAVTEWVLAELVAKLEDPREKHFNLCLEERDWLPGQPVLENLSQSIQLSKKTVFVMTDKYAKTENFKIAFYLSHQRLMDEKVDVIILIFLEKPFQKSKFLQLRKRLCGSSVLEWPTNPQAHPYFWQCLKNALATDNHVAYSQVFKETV
Description: HEK-Blue-hTLR7/8/9 cell inhibition assay
1. HEK-Blue-hTLR7/8 cells (1 × 10^4 cells/well) and HEK-Blue-hTLR9 cells (1.5 × 10^4 cells/well) were seeded in a 384-well cell culture plate, with a volume of 30 µL per well. The plate was incubated at 37°C in a 5% CO2 incubator for 4 h. 2. The compound was prepared with DMSO and diluted in DMEM medium to 10 concentrations (1:3 dilution), with final concentrations of 10000, 3333.3, 1111.1, 370.4, 123.5, 41.2, 13.7, 4.6, 1.5, and 0.5 nM; R848 was prepared with DMSO and diluted in DMEM medium, with final concentrations of 0.8 µM (HEK-Blue-hTLR7) and 3 µM (HEK-Blue-hTLR8); ODN2006 was prepared with endotoxin-free water and diluted in DMEM medium, with a final concentration of 1 µM. 3. Cells treated with DMSO were used as the blank control group, while cells treated solely with Resiquimod (R848) were used as the positive control group for HEK-Blue-hTLR7/8, and cells treated solely with ODN2006 were used as the positive control group for HEK-Blue-hTLR9. Cells treated with the test compound together with R848 or ODN2006 were used as the test group. Two parallel wells were set for each group and were placed at 37°C in a 5% CO2 incubator for incubation. 4. After being incubated for 4 h, the 384-well plate of HEK-Blue-hTLR7/8 was taken out from the incubator, and R848 alone or both R848 and the diluted compound were separately added into each well. The plate was placed at 37°C in a 5% CO2 incubator for incubation for 16 h; the 384-well plate of HEK-Blue-hTLR9 was taken out from the incubator, and ODN2006 alone or both ODN2006 and the diluted compound were added separately to each well. The plate was incubated at 37°C in a 5% CO2 incubator for 16 h. 5. After being incubated for 16 h, the 384-well plate was removed from the incubator and centrifuged at 1000 rpm for 1 minute. The optical density value of each well at 620 nm was measured using a multifunctional microplate reader. 6. The cell inhibition rate was calculated as (1-(OD620 test group-OD620 blank group)/(OD620 positive group-OD620 blank group))×100%, and the half maximal inhibitory concentration (IC50) was calculated through curve fitting. Table 1: Activity of the compounds of the present disclosure in HEK-Blue-hTLR7/8/9 cellular assays

Row | Structure (SMILES) | IC50
1 | CN1[C@@H]2CC[C@H]1C[C@H](c1nnc([C@]34CN(c5ccc(C(F)(F)F)c6ncccc56)C[C@@]3(C(F)(F)F)C4)o1)C2 [Compound 79, 2-((1R,3S,5S)-8-methyl-8-azabicyclo[3.2.1]octan-3-yl)-5-((1S,5R)-5-(trifluoromethyl)-3-(8-(trifluoromethyl)quinolin-5-yl)-3-azabicyclo[3.1.0]hexan-1-yl)-1,3,4-oxadiazole] | < 0.1 µM
2 | CN(C)[C@H]1CC[C@H](c2nnc([C@]34CN(c5ccc(C#N)c6ncccc56)C[C@@]3(C(F)(F)F)C4)o2)CC1 [Compound 21, 5-((1S,5R)-1-(5-((1R,4S)-4-(dimethylamino)cyclohexyl)-1,3,4-oxadiazol-2-yl)-5-(trifluoromethyl)-3-azabicyclo[3.1.0]hexan-3-yl)quinoline-8-carbonitrile] | < 0.1 µM
3 | CN1CCC(n2cnc([C@]34CN(c5ccc(C#N)c6ncccc56)C[C@@]3(C(F)(F)F)C4)n2)CC1 [Compound 23, 5-((1S,5R)-1-(1-(1-methylpiperidin-4-yl)-1H-1,2,4-triazol-3-yl)-5-(trifluoromethyl)-3-azabicyclo[3.1.0]hexan-3-yl)quinoline-8-carbonitrile] | < 0.1 µM
4 | N#Cc1ccc(N2C[C@]3(c4nnc(C56CCC(NC(=O)[C@@H]7COCCN7)(CC5)CC6)o4)C[C@]3(C(F)(F)F)C2)c2cccnc12 [Compound 54, (S)-N-(4-(5-((1S,5R)-3-(8-cyanoquinolin-5-yl)-5-(trifluoromethyl)-3-azabicyclo[3.1.0]hexan-1-yl)-1,3,4-oxadiazol-2-yl)bicyclo[2.2.2]octan-1-yl)morpholine-3-carboxamide] | < 0.1 µM
5 | N#Cc1ccc(N2C[C@]3(c4nnc(C5CCNCC5F)o4)C[C@]3(C(F)(F)F)C2)c2cccnc12 (stereo partly shown) [Compound 33] | < 0.1 µM
6 | CN1CCC(C)(c2nnc([C@]34CN(c5ccc(C#N)c6ncccc56)C[C@@]3(C(F)(F)F)C4)o2)CC1 [Compound 8, 5-((1S,5R)-1-(5-(1,4-dimethylpiperidin-4-yl)-1,3,4-oxadiazol-2-yl)-5-(trifluoromethyl)-3-azabicyclo[3.1.0]hexan-3-yl)quinoline-8-carbonitrile] | < 0.1 µM
7 | N#Cc1ccc(N2C[C@]3(c4nnc(CC5CNC5)o4)C[C@]3(C(F)(F)F)C2)c2cccnc12 [Compound 35, 5-((1S,5R)-1-(5-(azetidin-3-ylmethyl)-1,3,4-oxadiazol-2-yl)-5-(trifluoromethyl)-3-azabicyclo[3.1.0]hexan-3-yl)quinoline-8-carbonitrile] | < 1 µM
8 | N#Cc1ccc(N2C[C@]3(c4nnc(C5=CCNC5)o4)C[C@]3(C(F)(F)F)C2)c2cccnc12 [Compound 22, 5-((1S,5R)-1-(5-(2,5-dihydro-1H-pyrrol-3-yl)-1,3,4-oxadiazol-2-yl)-5-(trifluoromethyl)-3-azabicyclo[3.1.0]hexan-3-yl)quinoline-8-carbonitrile] | < 0.1 µM
9 | CN1CCC(c2nnc([C@]34CN(c5ccc(C#N)n6ncc(Cl)c56)C[C@@]3(C(F)(F)F)C4)o2)CC1 [Compound 84, 3-chloro-4-((1S,5R)-1-(5-(1-methylpiperidin-4-yl)-1,3,4-oxadiazol-2-yl)-5-(trifluoromethyl)-3-azabicyclo[3.1.0]hexan-3-yl)pyrazolo[1,5-a]pyridine-7-carbonitrile] | < 0.1 µM
10 | N#Cc1ccc(N2C[C@]3(c4nnc([C@H]5CC[C@H](N)CC5)o4)C[C@]3(C(F)(F)F)C2)c2cccnc12 [Compound 20, 5-((1S,5R)-1-(5-((1R,4S)-4-aminocyclohexyl)-1,3,4-oxadiazol-2-yl)-5-(trifluoromethyl)-3-azabicyclo[3.1.0]hexan-3-yl)quinoline-8-carbonitrile] | < 0.1 µM

Now from value to molecule:

Row | IC50 | Structure (SMILES)
11 | < 1 µM | Cn1c(CN2CCCC2)nnc1[C@]12CN(c3ccc(C#N)c4ncccc34)C[C@@]1(C(F)(F)F)C2 [Compound 44, 5-((1S,5R)-1-(4-methyl-5-(pyrrolidin-1-ylmethyl)-4H-1,2,4-triazol-3-yl)-5-(trifluoromethyl)-3-azabicyclo[3.1.0]hexan-3-yl)quinoline-8-carbonitrile]
12 | < 0.1 µM | CN(C)CC#Cc1nnc([C@]23CN(c4ccc(C#N)c5ncccc45)C[C@@]2(C(F)(F)F)C3)o1 [Compound 25, 5-((1S,5R)-1-(5-(3-(dimethylamino)prop-1-yn-1-yl)-1,3,4-oxadiazol-2-yl)-5-(trifluoromethyl)-3-azabicyclo[3.1.0]hexan-3-yl)quinoline-8-carbonitrile]
13 | < 0.1 µM | CN1CCC(c2nnc([C@]34CN(c5ccc(C#N)c6ncnn56)C[C@@]3(C(F)(F)F)C4)o2)CC1 [Compound 91, 5-((1S,5R)-1-(5-(1-methylpiperidin-4-yl)-1,3,4-oxadiazol-2-yl)-5-(trifluoromethyl)-3-azabicyclo[3.1.0]hexan-3-yl)-[1,2,4]triazolo[1,5-a]pyridine-8-carbonitrile]
14 | < 0.1 µM | CN1CCN(c2nnc([C@]34CN(c5ccc(C#N)c6ncccc56)C[C@@]3(C(F)(F)F)C4)o2)CC1 [Compound 1, 5-((1S,5R)-1-(5-(4-methylpiperazin-1-yl)-1,3,4-oxadiazol-2-yl)-5-(trifluoromethyl)-3-azabicyclo[3.1.0]hexan-3-yl)quinoline-8-carbonitrile]
15 | > 1 µM | Cc1cc(N2CC3(c4nnc(C5CCN(C)CC5)o4)C[C@]3(C(F)(F)F)C2)c2cnn(C)c2n1 (stereo partly drawn) [Compound 2, 2-((5R)-3-(1,6-dimethyl-1H-pyrazolo[3,4-b]pyridin-4-yl)-5-(trifluoromethyl)-3-azabicyclo[3.1.0]hexan-1-yl)-5-(1-methylpiperidin-4-yl)-1,3,4-oxadiazole]
16 | < 1 µM | CN1CCC(c2nnc([C@]34CN(c5ccc(C#N)c6ncccc56)C[C@@]3(C(F)(F)F)C4)n2C)CC1 [Compound 5, 5-((1S,5R)-1-(4-methyl-5-(1-methylpiperidin-4-yl)-4H-1,2,4-triazol-3-yl)-5-(trifluoromethyl)-3-azabicyclo[3.1.0]hexan-3-yl)quinoline-8-carbonitrile]
17 | < 0.1 µM | N#Cc1ccc(N2C[C@]3(c4nnc(N)o4)C[C@]3(C(F)(F)F)C2)c2cccnc12 [Compound 7, 5-((1S,5R)-1-(5-amino-1,3,4-oxadiazol-2-yl)-5-(trifluoromethyl)-3-azabicyclo[3.1.0]hexan-3-yl)quinoline-8-carbonitrile]
18 | < 0.1 µM | N#Cc1ccc(N2C[C@]3(c4nnc(C5CCN(CC(N)=O)CC5)o4)C[C@]3(C(F)(F)F)C2)c2cccnc12 [Compound 17, 2-(4-(5-((1S,5R)-3-(8-cyanoquinolin-5-yl)-5-(trifluoromethyl)-3-azabicyclo[3.1.0]hexan-1-yl)-1,3,4-oxadiazol-2-yl)piperidin-1-yl)acetamide]
19 | < 0.1 µM | N#Cc1ccc(N2C[C@]3(c4nnc(CN5CCCC5)o4)C[C@]3(C(F)(F)F)C2)c2cccnc12 [Compound 41, 5-((1S,5R)-1-(5-(Pyrrolidin-1-ylmethyl)-1,3,4-oxadiazol-2-yl)-5-(trifluoromethyl)-3-azabicyclo[3.1.0]hexan-3-yl)quinoline-8-carbonitrile]
